Key:
[1] = Stability investigation of the lyophilisate (visual inspection, reverse HPLC); assay type: physicochemical
Method: For that the lyophilisate was stored up to 24 months at 2 to 8° C. and up to 6 months at 25° C. at 60% relative humidity. Stability was investigated at different time points during that period. In particular the appearance, contents, as well as purity of the cyclic peptides were investigated. For that laboratory-common analytical processes were used, such as e.g. visual inspection and reverse HPLC.

[2] = molecular target: T1, amilorid-sensitive Sodium Ion Channel (ENaC) (Homo sapiens, UniProt P37088); assay: Patch Clamp whole cell sodium current in deglycosylated (PNGase F) and untreated A549 cells; assay type: cell-based; settings: pre-treatment with PNGase F, peptide 240 nM, Eh = −100 mV
T1 construct: Macroscopic Sodium Ion Currents were derived from human lung epithelian cells A549; endogenous in cells; host or cells: A549 human lung epithelial cells
T1 sequence (P37088 1-669): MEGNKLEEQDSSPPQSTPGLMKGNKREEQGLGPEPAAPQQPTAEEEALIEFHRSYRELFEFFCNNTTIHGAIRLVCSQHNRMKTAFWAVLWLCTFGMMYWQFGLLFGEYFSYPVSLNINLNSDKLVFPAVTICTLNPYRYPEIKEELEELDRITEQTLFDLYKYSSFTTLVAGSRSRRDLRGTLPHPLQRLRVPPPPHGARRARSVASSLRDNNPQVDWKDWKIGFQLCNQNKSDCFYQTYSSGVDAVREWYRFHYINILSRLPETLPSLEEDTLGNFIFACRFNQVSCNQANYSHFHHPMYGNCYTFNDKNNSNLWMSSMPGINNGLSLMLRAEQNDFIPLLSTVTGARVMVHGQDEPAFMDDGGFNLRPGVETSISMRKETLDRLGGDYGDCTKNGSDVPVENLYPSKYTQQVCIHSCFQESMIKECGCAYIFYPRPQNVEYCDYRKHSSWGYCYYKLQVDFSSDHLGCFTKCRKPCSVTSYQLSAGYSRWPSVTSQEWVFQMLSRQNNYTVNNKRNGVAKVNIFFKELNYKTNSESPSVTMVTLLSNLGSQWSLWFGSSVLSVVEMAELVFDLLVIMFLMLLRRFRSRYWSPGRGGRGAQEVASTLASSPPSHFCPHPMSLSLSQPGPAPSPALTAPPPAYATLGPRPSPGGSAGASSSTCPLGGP
T1 sequence (P51168 1-640 partner): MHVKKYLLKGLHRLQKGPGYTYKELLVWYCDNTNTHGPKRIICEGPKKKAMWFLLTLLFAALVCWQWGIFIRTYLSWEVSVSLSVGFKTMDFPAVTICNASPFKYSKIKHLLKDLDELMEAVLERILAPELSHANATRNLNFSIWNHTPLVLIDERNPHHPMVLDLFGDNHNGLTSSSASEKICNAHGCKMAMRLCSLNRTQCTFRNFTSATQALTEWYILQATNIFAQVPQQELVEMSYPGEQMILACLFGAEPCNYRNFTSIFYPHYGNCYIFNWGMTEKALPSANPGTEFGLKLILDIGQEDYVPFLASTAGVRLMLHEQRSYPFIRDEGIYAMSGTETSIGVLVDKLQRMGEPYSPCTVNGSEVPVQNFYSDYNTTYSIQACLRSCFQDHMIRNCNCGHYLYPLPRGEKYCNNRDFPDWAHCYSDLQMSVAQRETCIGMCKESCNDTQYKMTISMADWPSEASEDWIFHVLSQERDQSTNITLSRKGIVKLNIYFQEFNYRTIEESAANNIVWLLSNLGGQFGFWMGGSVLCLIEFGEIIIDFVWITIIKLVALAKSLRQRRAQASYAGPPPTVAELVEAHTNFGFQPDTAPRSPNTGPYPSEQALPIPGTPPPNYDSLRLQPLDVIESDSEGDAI
T1 sequence (P51170 1-649 partner): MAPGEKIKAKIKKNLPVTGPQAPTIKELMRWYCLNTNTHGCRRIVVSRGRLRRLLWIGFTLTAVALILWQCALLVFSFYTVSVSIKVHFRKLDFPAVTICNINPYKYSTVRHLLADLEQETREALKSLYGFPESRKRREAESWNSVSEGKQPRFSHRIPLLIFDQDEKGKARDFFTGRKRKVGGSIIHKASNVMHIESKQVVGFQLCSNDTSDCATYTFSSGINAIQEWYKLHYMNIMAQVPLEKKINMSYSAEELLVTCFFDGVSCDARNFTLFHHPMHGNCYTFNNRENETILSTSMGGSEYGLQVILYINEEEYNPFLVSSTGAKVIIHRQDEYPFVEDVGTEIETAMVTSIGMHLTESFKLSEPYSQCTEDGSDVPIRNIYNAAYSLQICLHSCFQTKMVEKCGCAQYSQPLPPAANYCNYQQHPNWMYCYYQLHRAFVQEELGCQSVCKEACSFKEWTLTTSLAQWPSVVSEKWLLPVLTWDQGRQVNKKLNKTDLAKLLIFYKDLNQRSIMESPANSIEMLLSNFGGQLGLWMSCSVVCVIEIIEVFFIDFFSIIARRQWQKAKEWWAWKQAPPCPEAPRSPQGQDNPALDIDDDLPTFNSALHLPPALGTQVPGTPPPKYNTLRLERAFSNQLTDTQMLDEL
Method: […] After control recordings, 240 nM of the peptide of amino acid sequence SEQ ID NO:1 was added to the bath solution. […] Whole cell currents were recorded at Eh=−100 mV. The concentration of the peptides of amino acid sequence SEQ ID NO:1 to SEQ ID NO:7 in the bath solution was 240 nM.

[3] = storage 2-8° C., T = 0 to T = 24 M
[4] = storage 25° C./60% rH, T = 0 to T = 6 M

For `C[C@@H]1NC(=O)CNC(=O)[C@H](CCC(=O)O)NC(=O)[C@@H]2CCCN2C(=O)[C@H]([C@@H](C)O)NC(=O)[C@H](CCC(=O)O)NC(=O)[C@H](CCCNC(=N)N)NC(=O)[C@H](CCC(N)=O)NC(=O)CNC(=O)[C@@H]2CCCN2C(=O)[C@H](CO)NC(=O)[C@@H](N)CCCCNC(=O)CC[C@@H](C(=O)O)NC(=O)[C@H](Cc2ccc(O)cc2)NC(=O)[C@H](Cc2c[nH]c3ccccc23)NC(=O)[C@@H]2CCCN2C(=O)[C@H](CCCCN)NC(=O)[C@H](C)NC(=O)[C@H](CCC(=O)O)NC1=O` [SEQ ID NO: 2], the Amount/Contents of lyophilisate ([1]; storage 2-8° C., T = 0) was 100%, the “Purity of lyophilisate (stability study)” value ([1]; storage 2-8° C., T = 0) was 96% and the Appearence of lyophilisate [1, 3] was “white powder”. The Amount/Contents of lyophilisate ([1]; storage 2-8° C., T = 24 M) was 99%, the “Purity of lyophilisate (stability study)” value ([1]; storage 2-8° C., T = 24 M) was 96% and the Amount/Contents of lyophilisate ([1]; storage 25° C./60% rH, T = 0) was 100%. For the same compound, the “Purity of lyophilisate (stability study)” value ([1]; storage 25° C./60% rH, T = 0) was 96%, the Appearence of lyophilisate [1, 4] was “white powder” and the Amount/Contents of lyophilisate ([1]; storage 25° C./60% rH, T = 6 M) was 99%. The “Purity of lyophilisate (stability study)” value ([1]; storage 25° C./60% rH, T = 6 M) was 95% and the “whole cell sodium current” value [2] was 21.3 pA (n = 3).
With `C[C@@H]1NC(=O)CNC(=O)[C@H](CCC(=O)O)NC(=O)[C@@H]2CCCN2C(=O)[C@H]([C@@H](C)O)NC(=O)[C@H](CCC(=O)O)NC(=O)[C@H](CCCNC(=N)N)NC(=O)[C@H](CCC(N)=O)NC(=O)CNC(=O)CCNC(=O)CC[C@@H](C(=O)O)NC(=O)[C@H](Cc2ccc(O)cc2)NC(=O)[C@H](Cc2c[nH]c3ccccc23)NC(=O)[C@@H]2CCCN2C(=O)[C@H](CCCCN)NC(=O)[C@H](C)NC(=O)[C@H](CCC(=O)O)NC1=O` [SEQ ID NO: 6] the Amount/Contents of lyophilisate ([1]; storage 2-8° C., T = 0) was 100%, the “Purity of lyophilisate (stability study)” value ([1]; storage 2-8° C., T = 0) was 99% and the Appearence of lyophilisate [1, 3] was “white powder”. For the same compound, the Amount/Contents of lyophilisate ([1]; storage 2-8° C., T = 24 M) was 99%, the “Purity of lyophilisate (stability study)” value ([1]; storage 2-8° C., T = 24 M) was 99% and the Amount/Contents of lyophilisate ([1]; storage 25° C./60% rH, T = 0) was 100%. The “Purity of lyophilisate (stability study)” value ([1]; storage 25° C./60% rH, T = 0) was 99%, the Appearence of lyophilisate [1, 4] was “white powder” and the Amount/Contents of lyophilisate ([1]; storage 25° C./60% rH, T = 6 M) was 99%. The “Purity of lyophilisate (stability study)” value ([1]; storage 25° C./60% rH, T = 6 M) was 98% and the “whole cell sodium current” value [2] was 19.9 pA (n = 3).
With `C[C@@H]1NC(=O)CNC(=O)[C@H](CCC(=O)O)NC(=O)[C@@H]2CCCN2C(=O)[C@H]([C@@H](C)O)NC(=O)[C@H](CCC(=O)O)NC(=O)[C@H](CCCNC(=N)N)NC(=O)[C@H](CCC(N)=O)NC(=O)CNC(=O)[C@@H](N)CCCCNC(=O)CNC(=O)[C@H](Cc2ccc(O)cc2)NC(=O)[C@H](Cc2c[nH]c3ccccc23)NC(=O)[C@@H]2CCCN2C(=O)[C@H](CCCCN)NC(=O)[C@H](C)NC(=O)[C@H](CCC(=O)O)NC1=O` [SEQ ID NO: 3] the Amount/Contents of lyophilisate ([1]; storage 2-8° C., T = 0) was 100%, the “Purity of lyophilisate (stability study)” value ([1]; storage 2-8° C., T = 0) was 98% and the Appearence of lyophilisate [1, 3] was “white powder”. The Amount/Contents of lyophilisate ([1]; storage 2-8° C., T = 24 M) was 99%, the “Purity of lyophilisate (stability study)” value ([1]; storage 2-8° C., T = 24 M) was 98% and the Amount/Contents of lyophilisate ([1]; storage 25° C./60% rH, T = 0) was 100%. The “Purity of lyophilisate (stability study)” value ([1]; storage 25° C./60% rH, T = 0) was 98%, the Appearence of lyophilisate [1, 4] was “white powder” and the Amount/Contents of lyophilisate ([1]; storage 25° C./60% rH, T = 6 M) was 99%. The “Purity of lyophilisate (stability study)” value ([1]; storage 25° C./60% rH, T = 6 M) was 97% and the “whole cell sodium current” value [2] was 20.6 pA (n = 3).
With `C[C@@H]1NC(=O)CNC(=O)[C@H](CCC(=O)O)NC(=O)[C@@H]2CCCN2C(=O)[C@H]([C@@H](C)O)NC(=O)[C@H](CCC(=O)O)NC(=O)[C@H](CCCNC(=N)N)NC(=O)[C@H](CCC(N)=O)NC(=O)CNC(=O)CCCNC(=O)C[C@@H](C(=O)O)NC(=O)[C@H](Cc2ccc(O)cc2)NC(=O)[C@H](Cc2c[nH]c3ccccc23)NC(=O)[C@@H]2CCCN2C(=O)[C@H](CCCCN)NC(=O)[C@H](C)NC(=O)[C@H](CCC(=O)O)NC1=O` [SEQ ID NO: 5] the Amount/Contents of lyophilisate ([1]; storage 2-8° C., T = 0) was 100%, the “Purity of lyophilisate (stability study)” value ([1]; storage 2-8° C., T = 0) was 99% and the Appearence of lyophilisate [1, 3] was “white powder”. For the same compound, the Amount/Contents of lyophilisate ([1]; storage 2-8° C., T = 24 M) was 99%, the “Purity of lyophilisate (stability study)” value ([1]; storage 2-8° C., T = 24 M) was 99% and the Amount/Contents of lyophilisate ([1]; storage 25° C./60% rH, T = 0) was 100%. The “Purity of lyophilisate (stability study)” value ([1]; storage 25° C./60% rH, T = 0) was 99%, the Appearence of lyophilisate [1, 4] was “white powder” and the Amount/Contents of lyophilisate ([1]; storage 25° C./60% rH, T = 6 M) was 99%. The “Purity of lyophilisate (stability study)” value ([1]; storage 25° C./60% rH, T = 6 M) was 98% and the “whole cell sodium current” value [2] was 22.4 pA (n = 3).
With `C[C@@H]1NC(=O)CNC(=O)[C@H](CCC(=O)O)NC(=O)[C@@H]2CCCN2C(=O)[C@H]([C@@H](C)O)NC(=O)[C@H](CCC(=O)O)NC(=O)[C@H](CCCNC(=N)N)NC(=O)[C@H](CCC(N)=O)NC(=O)CNC(=O)[C@@H](N)CCCNC(=O)CNC(=O)[C@H](Cc2ccc(O)cc2)NC(=O)[C@H](Cc2c[nH]c3ccccc23)NC(=O)[C@@H]2CCCN2C(=O)[C@H](CCCCN)NC(=O)[C@H](C)NC(=O)[C@H](CCC(=O)O)NC1=O` [SEQ ID NO: 4] the Amount/Contents of lyophilisate ([1]; storage 2-8° C., T = 0) was 100%, the “Purity of lyophilisate (stability study)” value ([1]; storage 2-8° C., T = 0) was 97% and the Appearence of lyophilisate [1, 3] was “white powder”. The Amount/Contents of lyophilisate ([1]; storage 2-8° C., T = 24 M) was 99%, the “Purity of lyophilisate (stability study)” value ([1]; storage 2-8° C., T = 24 M) was 97% and the Amount/Contents of lyophilisate ([1]; storage 25° C./60% rH, T = 0) was 100%. The “Purity of lyophilisate (stability study)” value ([1]; storage 25° C./60% rH, T = 0) was 97%, the Appearence of lyophilisate [1, 4] was “white powder” and the Amount/Contents of lyophilisate ([1]; storage 25° C./60% rH, T = 6 M) was 99%. The “Purity of lyophilisate (stability study)” value ([1]; storage 25° C./60% rH, T = 6 M) was 96% and the “whole cell sodium current” value [2] was 22.5 pA (n = 3).
